Where two headings read alike, the source gives them in different places. Each block holds one molecule with its values, some of them ahead of it.
Tests used:
[1] = test system: L-type calcium channels (LTCCs); experiment: Calcium flux (FLIPR) assay, Bay K8644-induced responses in rat primary cortical cultures; type: cell-based; conditions: for Block of Bay K8644-evoked calcium fluorescent response: compound 3 µM
[2] = target: CaV1.2 (Homo sapiens, UniProt Q13936); experiment: in vitro; conditions: pH 7.4
Chain of CaV1.2 (Q13936 1-2138 isoform Q13936-12): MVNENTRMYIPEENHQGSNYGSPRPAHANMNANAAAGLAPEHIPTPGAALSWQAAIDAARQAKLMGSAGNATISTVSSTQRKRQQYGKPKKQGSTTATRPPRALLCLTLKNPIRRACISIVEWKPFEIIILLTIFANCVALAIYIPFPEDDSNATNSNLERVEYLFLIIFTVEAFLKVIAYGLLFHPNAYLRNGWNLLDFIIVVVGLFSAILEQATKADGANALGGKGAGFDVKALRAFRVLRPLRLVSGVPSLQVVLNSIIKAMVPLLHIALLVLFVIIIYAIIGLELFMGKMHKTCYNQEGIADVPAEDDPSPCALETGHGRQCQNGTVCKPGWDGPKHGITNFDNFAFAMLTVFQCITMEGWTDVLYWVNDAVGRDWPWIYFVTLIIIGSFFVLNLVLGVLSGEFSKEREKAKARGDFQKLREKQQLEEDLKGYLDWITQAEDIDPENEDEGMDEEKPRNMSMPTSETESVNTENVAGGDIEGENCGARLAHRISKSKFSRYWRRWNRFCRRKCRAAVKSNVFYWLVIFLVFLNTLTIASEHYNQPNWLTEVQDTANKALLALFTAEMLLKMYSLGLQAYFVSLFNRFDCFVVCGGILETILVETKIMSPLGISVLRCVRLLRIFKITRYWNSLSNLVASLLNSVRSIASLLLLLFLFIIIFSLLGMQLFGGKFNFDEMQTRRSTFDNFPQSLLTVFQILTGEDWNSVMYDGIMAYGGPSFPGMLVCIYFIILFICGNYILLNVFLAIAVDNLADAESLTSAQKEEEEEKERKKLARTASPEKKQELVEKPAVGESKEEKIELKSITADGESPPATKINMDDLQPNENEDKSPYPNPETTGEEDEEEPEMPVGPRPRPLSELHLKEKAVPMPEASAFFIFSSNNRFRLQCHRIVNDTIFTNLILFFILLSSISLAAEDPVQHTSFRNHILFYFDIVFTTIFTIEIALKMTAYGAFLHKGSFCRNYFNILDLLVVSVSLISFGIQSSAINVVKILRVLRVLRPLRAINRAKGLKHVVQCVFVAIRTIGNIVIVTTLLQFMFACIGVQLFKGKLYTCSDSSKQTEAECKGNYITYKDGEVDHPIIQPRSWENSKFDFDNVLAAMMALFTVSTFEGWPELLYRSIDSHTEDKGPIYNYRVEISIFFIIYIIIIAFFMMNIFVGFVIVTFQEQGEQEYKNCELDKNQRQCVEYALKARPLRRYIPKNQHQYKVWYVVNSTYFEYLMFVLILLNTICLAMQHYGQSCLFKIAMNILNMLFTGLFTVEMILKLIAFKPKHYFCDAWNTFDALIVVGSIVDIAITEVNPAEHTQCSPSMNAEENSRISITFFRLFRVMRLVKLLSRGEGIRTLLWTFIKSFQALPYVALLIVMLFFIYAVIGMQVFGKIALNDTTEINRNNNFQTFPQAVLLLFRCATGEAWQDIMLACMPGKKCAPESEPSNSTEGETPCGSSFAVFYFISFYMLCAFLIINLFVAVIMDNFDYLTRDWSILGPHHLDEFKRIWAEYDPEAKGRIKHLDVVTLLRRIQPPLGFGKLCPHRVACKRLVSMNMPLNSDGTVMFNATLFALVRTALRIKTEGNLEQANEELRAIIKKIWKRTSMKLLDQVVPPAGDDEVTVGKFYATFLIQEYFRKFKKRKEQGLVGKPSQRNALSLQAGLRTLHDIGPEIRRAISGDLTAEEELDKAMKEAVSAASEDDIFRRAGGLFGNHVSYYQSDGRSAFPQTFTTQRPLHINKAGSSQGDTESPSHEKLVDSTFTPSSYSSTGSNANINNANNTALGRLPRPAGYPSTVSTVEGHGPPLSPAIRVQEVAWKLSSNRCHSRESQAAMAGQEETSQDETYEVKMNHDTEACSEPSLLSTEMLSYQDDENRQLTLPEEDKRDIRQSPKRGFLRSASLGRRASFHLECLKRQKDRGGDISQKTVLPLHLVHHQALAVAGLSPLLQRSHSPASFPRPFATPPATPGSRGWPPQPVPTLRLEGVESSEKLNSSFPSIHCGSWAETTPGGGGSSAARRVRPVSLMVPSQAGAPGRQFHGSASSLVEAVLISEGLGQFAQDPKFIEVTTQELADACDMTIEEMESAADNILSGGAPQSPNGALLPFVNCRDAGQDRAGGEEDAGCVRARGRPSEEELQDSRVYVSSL

[3] = target: Benzothiazepine site; experiment: Rat cortex binding, benzothiazepine site ([3H]diltiazem); conditions: [3H]diltiazem 15 nM
Description: (§1) The in-vitro binding studies were conducted by Eurofins (France) using rat cortex. […] The IC50 values (the concentration that causes half-maximal inhibition of control specific binding) were determined by non-linear regression analysis of the competition curves using Hill equation: Y = […] Y = specific binding, A = left asymptote of the curve, D = right asymptote of the curve, C = compound concentration, and nH = slope factor. Analyses were performed using software developed at Eurofins (Hill software) and validated by comparison with data generated by the commercial software SigmaPlot 4.0. […] KD values were determined from Scatchard plots.

[4] = test system: LTCC currents; experiment: Patch clamp, LTCC currents in rat cortical neurons; type: cell-based
[5] = target: Phenylalkylamine site; experiment: Rat cortex binding, phenylalkylamine site ([3H]D888); conditions: [3H]D888 3 nM
Description: as §1

[6] = target: DHP site; experiment: Rat cortex binding, DHP site ([3H]nitrendipine); conditions: [3H]nitrendipine 0.1 nM
Description: as §1

[7] = test system: VGCCs; experiment: Calcium fluorescent response to high [K+] in rat cortical cultures; type: cell-based; conditions: 100 mM K+, compound 3 µM, holding [K+] 20 mM
[8] = PW library screen hit confirmation, 1.1 µM Bay K8644, holding [K+] 20 mM, read-out: FLIPR IC50 Rat cortical culture
[9] = Vhold/Vtest -50/-20 mV, 300 nM Bay K8644
[10] = Vhold/Vtest -50/-20 mV, 300 nM Bay K8644, read-out: IC50, LTCC currents
[11] = 300 nM Bay K8644, holding [K+] 20 mM, read-out: IC50, inhibition of Bay K-induced responses (calcium flux)

IC50 [1, 8]: 680 nM
Structure (SMILES): Fc1ccc(C(OCCN2CCN(CCCc3ccccc3)CC2)c2ccc(F)cc2)cc1 [GBR 12909]

Ki ([3]; rat cortical homogenates): > 30 µM
IC50 [4, 10]: 183 ± 28.2 nM
IC50 ([1]; PW library screen hit confirmation, 1.1 µM Bay K8644, holding [K+] 20 mM, listed as niclosamide, read-out: FLIPR IC50 Rat cortical culture): 79.5 ± 12.8 nM
IC50 [1, 8]: 80 nM
Ki ([5]; rat cortical homogenates): > 30 µM
Ki ([6]; rat cortical homogenates): > 30 µM
Structure (SMILES): O=C(Nc1ccc([N+](=O)[O-])cc1Cl)c1cc(Cl)ccc1O [Niclosamide]
inhibition at 0.1 µM [2]: 80.6 ± 4.9%
max % inhibition of LTCC currents [4, 9]: full efficacy
max % inhibition of LTCC currents ([4]; Vhold/Vtest -50/-20 mV, 300 nM Bay K8644, listed as niclosamide): 100%
20–80% rise time ([4]; at -20 mV, in presence of 200 nM compound): 16.1 ± 3.5 ms
Current remaining after 400 ms of depolarization, % of the peak ([4]; depolarization to -20 mV, 200 nM compound): 41.9 ± 7.5%
maximal % inhibition of LTCC-mediated calcium flux ([1]; cortical cultures, n = 3): 100%

IC50 [1, 8]: 28 nM
Structure (SMILES): COC(=O)C1=C(C#N)NC(C)=C(C(=O)OC(C)C)C1c1cccc([N+](=O)[O-])c1 (centres unmarked) [Nilvadipine]

IC50 [1, 8]: 104 nM
Structure (SMILES): COC(=O)C1=C(C)NC(C)=C(C(=O)OC2CCCN(Cc3ccccc3)C2)C1c1cccc([N+](=O)[O-])c1 (centres unmarked) [Benidipine]

IC50 [1, 8]: 57 nM
Structure (SMILES): CCOC(=O)C1=C(C)NC(C)=C(C(=O)OC)C1c1cccc(Cl)c1Cl (centres unmarked) [Felodipine]

EC50 ([4]; Vhold -50 mV, Vtest -20 mV, read-out: EC50, Bay K8644 concentration dependence (patch clamp)): 40.6 nM
EC50 ([1]; holding [K+] 20 mM, read-out: EC50, activation of LTCCs (calcium flux)): 204 nM
Structure (SMILES): COC(=O)C1=C(C)NC(C)=C([N+](=O)[O-])C1c1ccccc1C(F)(F)F (centres unmarked) [Bay K8644]

IC50 [1, 8]: 290 nM
Structure (SMILES): COC(=O)C1=C(C)NC(C)=C(C(=O)OCCN(C)Cc2ccccc2)C1c1cccc([N+](=O)[O-])c1 (centres unmarked) [Nicardipine]

IC50 [1, 8]: 453 nM
Structure (SMILES): CCOC(=O)C1=C(C)NC(C)=C(C(=O)OCC)C1c1ccccc1/C=C/C(=O)OC(C)(C)C [Lacidipine]

IC50 [1, 8]: 710 nM
Structure (SMILES): Cc1cccc(C)c1NC(=O)CN1CCN(CCCC(c2ccc(F)cc2)c2ccc(F)cc2)CC1 [lidoflazine]

IC50 ([4]; Vhold/Vtest -50/0 mV, control (no Bay K), read-out: IC50, patch clamp current): 28.3 ± 6.5 nM
IC50 ([4]; Vhold/Vtest -50/-20 mV, 300 nM Bay K8644, listed as nimodipine, read-out: IC50, LTCC currents): 415 nM
IC50 [4, 10]: 401 ± 21.8 nM
IC50 ([4]; Vhold/Vtest -50/-20 mV, control (no Bay K), read-out: IC50, patch clamp current): 24.8 nM
IC50 ([4]; Vhold/Vtest -90/0 mV, control (no Bay K), read-out: IC50, patch clamp current): 4800 nM
IC50 [1, 11]: 142 nM
IC50 [1, 8]: 110 nM
Structure (SMILES): COCCOC(=O)C1=C(C)NC(C)=C(C(=O)OC(C)C)C1c1cccc([N+](=O)[O-])c1 (centres unmarked) [Nimodipine]
Decrease of potency of inhibition by Bay K ([4]; IC50 with 300 nM Bay K vs without, -50/-20 mV): 16.7 fold
max % inhibition (fraction of sensitive current) ([4]; Vhold/Vtest -50/0 mV, control (no Bay K)): 85.4 ± 3.7%
max % inhibition (fraction of sensitive current) ([4]; Vhold/Vtest -50/0 mV, control (no Bay K), listed as nimodipine): 85%
max % inhibition of LTCC currents [4, 9]: 99.1 ± 1.1%
max % inhibition of LTCC currents ([4]; Vhold/Vtest -50/-20 mV, 300 nM Bay K8644, listed as nimodipine): 99%
max % inhibition (fraction of sensitive current) ([4]; Vhold/Vtest -50/-20 mV, control (no Bay K)): 96.1 ± 0.8%
max % inhibition (fraction of sensitive current) ([4]; Vhold/Vtest -50/-20 mV, control (no Bay K), listed as nimodipine): 96%
max % inhibition (fraction of sensitive current) ([4]; Vhold/Vtest -90/0 mV, control (no Bay K)): 75%
Block of Bay K8644-evoked calcium fluorescent response ([1]; 1.1 µM Bay K8644, holding [K+] 20 mM): completely
Block of Bay K8644-evoked calcium fluorescent response ([1]; 1.1 µM Bay K8644, holding [K+] 20 mM, listed as nimodipine): completely blocked
Block of high [K+]-evoked calcium fluorescent response [7]: partially
Block of high [K+]-evoked calcium fluorescent response ([7]; listed as nimodipine): partially blocked

IC50 ([5]; n = 4, read-out: IC50 positive control, phenylalkylamine site binding): 26.8 ± 3.6 nM
Structure (SMILES): COc1ccc(CCN(C)CCCC(C#N)(c2cc(OC)c(OC)c(OC)c2)C(C)C)cc1OC (centres unmarked) [D600]

IC50 [1, 8]: 8 nM
Structure (SMILES): COC(=O)C1=C(C)NC(C)=C(C(=O)OC(C)C)C1c1cccc2nonc12 (centres unmarked) [Isradipine]

IC50 [1, 8]: 140 nM
IC50 ([6]; n = 4, read-out: IC50 positive control, DHP site binding): 0.19 ± 0.03 nM
Structure (SMILES): CCOC(=O)C1=C(C)NC(C)=C(C(=O)OC)C1c1cccc([N+](=O)[O-])c1 (centres unmarked) [Nitrendipine]

IC50 [1, 8]: 820 nM
Structure (SMILES): CC(NCCC(c1ccccc1)c1ccccc1)c1ccccc1 (centres unmarked) [fendiline]

IC50 ([3]; n = 4, read-out: IC50 positive control, benzothiazepine site binding): 42.7 ± 6.8 nM
IC50 [1, 11]: 27100 nM
Structure (SMILES): COc1ccc([C@@H]2Sc3ccccc3N(CCN(C)C)C(=O)[C@@H]2OC(C)=O)cc1 [diltiazem]

Structure (SMILES): CN1CCC(=C2c3ccccc3C=Cc3ccccc32)CC1 [Cyproheptadine]
inhibition at 3 µM [2]: 52.3 ± 6.1%
% block of LTCC currents ([4]; 3 µM compound, -50/-20 mV, 300 nM Bay K8644): 75.2 ± 9.1%

IC50 [1, 8]: 760 nM
Structure (SMILES): O=C1NCN(c2ccccc2)C12CCN(CCCC(c1ccc(F)cc1)c1ccc(F)cc1)CC2 [fluspirilene]

— PMC7801380, “Development of phenotypic assays for identifying novel blockers of L-type calcium channels in neurons” (Scientific Reports, 2021)
